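Following 48 hours of exposure in 96-well plates, responses at five concentrations were used to interpolate endpoints linearly. The concentration for 50% growth inhibition is given as GI50.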 The source made the active and inactive calls. No stated cut-off is given here; in the data, active = GI50 up to about 1.1 µM and inactive = higher.
Columns and labels:
Assay in all cases: NCI tumour cell line growth inhibition, 48 h
M14 = system: M14
HT-29 = system: HT-29
ACHN = system: ACHN
UO-31 = system: UO-31
SF-539 = system: SF-539
NCI-H522 = system: NCI-H522
A498 = system: A498
NCI-H460 = system: NCI-H460
CAKI-1 = system: CAKI-1
CCRF-CEM = system: CCRF-CEM
KM12 = system: KM12
UACC-257 = system: UACC-257
OVCAR-4 = system: OVCAR-4
HCC 2998 = system: HCC 2998
MOLT-4 = system: MOLT-4
COLO 205 = system: COLO 205
IGROV-1 = system: IGROV-1
RXF 393 = system: RXF 393
RPMI-8226 = system: RPMI-8226

Measured: GI50

N=C(N)Nc1nc2cc(N)ccc2o1
inactive: M14 > 100 µM | HT-29 > 100 µM | ACHN > 100 µM | UO-31 > 100 µM | SF-539 > 100 µM | NCI-H522 > 100 µM | A498 > 100 µM | NCI-H460 > 100 µM | CAKI-1 > 100 µM | CCRF-CEM > 100 µM | KM12 > 100 µM | UACC-257 > 100 µM | OVCAR-4 > 100 µM | HCC 2998 > 100 µM | MOLT-4 > 100 µM

COc1ccc(/C(=N/Nc2ccccc2)C(c2ccc(OC)cc2)C2OC(=O)c3ccccc32)cc1 (configuration not stated)
inactive: M14 > 100 µM | HT-29 90.6 µM | ACHN 97.1 µM | UO-31 60.7 µM | SF-539 > 100 µM | NCI-H522 70.5 µM | A498 > 100 µM | NCI-H460 95.7 µM | CAKI-1 41.9 µM | CCRF-CEM 79.8 µM | COLO 205 > 100 µM | UACC-257 76 µM | IGROV-1 83.9 µM | OVCAR-4 > 100 µM | RXF 393 > 10 µM | HCC 2998 > 100 µM | MOLT-4 25.6 µM

CNC(=O)C(C)Oc1ccc(OCC2CCCCC2)cc1 (configuration not stated)
inactive: M14 > 100 µM | HT-29 86.3 µM | ACHN > 100 µM | UO-31 31.7 µM | SF-539 > 100 µM | NCI-H522 25.2 µM | A498 > 100 µM | NCI-H460 50.4 µM | CCRF-CEM > 100 µM | KM12 > 100 µM | UACC-257 61.1 µM | IGROV-1 > 100 µM | OVCAR-4 > 100 µM | RXF 393 > 100 µM | MOLT-4 > 100 µM

CCCCCCCCCCCCCP(=O)(O)NCC(N)=O
inactive: M14 29.2 µM | HT-29 > 100 µM | ACHN 28.6 µM | UO-31 27.7 µM | SF-539 55.7 µM | NCI-H522 34.5 µM | A498 > 100 µM | NCI-H460 > 100 µM | CCRF-CEM 52.8 µM | COLO 205 > 100 µM | KM12 85.1 µM | UACC-257 59.4 µM | IGROV-1 41.2 µM | OVCAR-4 28.7 µM | RXF 393 > 100 µM | RPMI-8226 35.1 µM | HCC 2998 > 100 µM

CCc1ccccc1NC(=O)C(=O)C(C#N)c1ccccc1Cl (configuration not stated)
inactive: M14 > 100 µM | HT-29 > 100 µM | ACHN > 100 µM | UO-31 > 100 µM | A498 35.5 µM | NCI-H460 16.9 µM | CCRF-CEM > 100 µM | COLO 205 > 100 µM | KM12 > 100 µM | UACC-257 > 100 µM | IGROV-1 > 100 µM | OVCAR-4 > 100 µM | RXF 393 > 100 µM | RPMI-8226 > 100 µM | HCC 2998 > 100 µM | MOLT-4 > 100 µM

CCCN1CN(C(C(=O)N[C@@H]2C(=O)N3C(C(=O)O)=C(C)CSC23)c2ccc(O)cc2)CSC1=S (some centres not stated)
inactive: M14 > 100 µM | HT-29 > 100 µM | ACHN > 100 µM | UO-31 > 100 µM | SF-539 > 100 µM | NCI-H522 23.6 µM | A498 > 100 µM | NCI-H460 63.1 µM | CAKI-1 > 100 µM | CCRF-CEM 66.8 µM | COLO 205 55.6 µM | KM12 > 100 µM | UACC-257 > 100 µM | IGROV-1 > 100 µM | OVCAR-4 > 100 µM | RPMI-8226 72.1 µM | MOLT-4 57.3 µM

O=C1C(Cl)C(c2ccc(Cl)cc2)N1n1cnc2ccccc2c1=O (configuration not stated)
inactive: M14 > 100 µM | HT-29 > 100 µM | ACHN > 100 µM | UO-31 59.7 µM | NCI-H522 55.2 µM | NCI-H460 > 100 µM | CAKI-1 40.8 µM | CCRF-CEM 48.6 µM | COLO 205 > 100 µM | KM12 24.8 µM | UACC-257 > 100 µM | IGROV-1 96.2 µM | OVCAR-4 > 100 µM | RXF 393 76 µM | RPMI-8226 40.6 µM | HCC 2998 > 100 µM | MOLT-4 88.9 µM

Nc1nc[n+](Cc2ccccc2CCO)c2[nH]cnc12
inactive: M14 > 100 µM | HT-29 > 100 µM | ACHN > 100 µM | UO-31 89.3 µM | SF-539 > 100 µM | NCI-H522 > 100 µM | A498 > 100 µM | NCI-H460 > 100 µM | CAKI-1 > 100 µM | CCRF-CEM > 100 µM | COLO 205 > 100 µM | KM12 > 100 µM | UACC-257 > 100 µM | IGROV-1 > 100 µM | OVCAR-4 > 100 µM | RXF 393 > 100 µM | RPMI-8226 > 100 µM | MOLT-4 > 100 µM

From ChEMBL document CHEMBL1201862, “PubChem BioAssay data set” (2004)
